Values joined by “and” are separate entries in the source; they are usually repeats but may differ in a detail not shown here. Identical values can stand only once.
Legend:
Type in all cases: cell-based
PLB protein = experiment: Western blot quantification of PLB protein content in myocytes infected with adenovirus transgenes; details: normalized to a-actin, compared with adenovirus/SR control lacking the transgene
From the text: FIG. 6a is a Western blot analysis of myocytes containing the adenovirus transgenes expressing sense PLB (sPLB), antisense PLB (asPLB), E2A, R14E, S16N, and K3E/R14E against monoclonal PLB. FIG. 6b is a Western blot showing the results of cell infectivity by PLB, sPLB and K3E/R14E. FIG. 6c illustrates the Western blot analysis of PLB infectivity of So18 cells.
Additional Western blot analysis of myocytes containing the adenovirus transgenes expressing sense PLB (sPLB), antisense PLB (asPLB), E2A, R14E, S1.6N, and K3E/R14E against monoclonal PLB antibody (Affinity BioReagents) is shown in FIG. 6a. […] In contrast, asPLB and S16N results in 54% and 33% decrease in PLB protein content within the myocytes. The introduction of K3E/R14E transgene infection of myocytes leads to a formation of a distinct pattern of pentamer PLB. Multiple PLB bands appear in addition to PLB5 (the pentamer).

[1] = tested on: isolated mouse cardiomyocytes; experiment: Contraction cycle of isolated mouse cardiomyocytes with penetratin-PLB peptide; details: 10 μM peptide; for Maximum Contract. / Minimum Contract.: arbitrary unit of length, single samples 1-7 and Mean; for Relax. Slope: control mean 0.9814
From the text: Cell level studies were done to evaluate the ability of two penetratin-based peptides, two mutant PLB-penetratin peptides, and two multiple antigen peptides (MAP) to strengthen the contraction cycle of isolated mouse cardiomyocytes. The two penetratin-based peptides include PLB-ANT (Seq. ID. No. 10) and TAT-PLB (Seq. ID. No. 11) each of which have a 20 residue portion of the PLB sequence attached to either the 5′ end of ANT (Seq. ID. No. 14) or the 3′ end of TAT (Seq. ID. No. 15). The two mutant PLB peptides, mutant PLB-ANT (Seq. ID. No. 12) and TAT-mutant PLB (Seq. ID No. 13), display a S16E mutation of the 20 residue PLB sequence. The multiple antigen peptides include MAP with 8 penetratin (ANT) domains and MAP with 4 penetratin domains and 4 PLB domains.
Each of the penetratin-PLB peptides were evaluated to measure their ability to strengthen the contraction cycle of isolated mouse cardiomyocytes, the idea being that the penetratin-PLB peptide would act as a dominant negative inhibitor of the PLE3-SERCA2a interaction.
Measurements were taken every 20 milliseconds, and the unit of length was arbitrary, but was generally on the order of one complete cell length. Percent contraction was calculated as (maximum length minus minimum length) divided by maximum length. A plot of time versus length generated a U-shaped curve from which the most linear segments were selected, with the left side of the “U” representing contraction and the right side representing relaxation.

SR Ca2+ transport = experiment: Radioactive Ca2+ transport assay (SR Ca2+ transport); details: adenoviral vector expressing contractilin, rat cardiomyocytes
Experimental: The amplified and purified hypervariable region RNA is then fused to a single cDNA (Seq. ID. No. 9) and subsequently cloned in frame into a plasmid vector, coding for a phage surface protein. Using standard phage display technique, phages which express the immune library of the chicken are selected by their positive response to the PLB peptide. After a series of enrichment for phages which specifically bind PLB, 20 clones are selected for ELISA. The resulting 5 best binders are then analyzed using a radioactive Ca^2+ transport assay. The two best activators of SR Ca^2+ transport are further analyzed. Both clones are found to dramatically stimulate the rate of Ca^2+ transport into the SR.

Question: Which “increase in PLB protein level” value (PLB protein) does the source give for “E2A: adenoviral single point mutation of PLB, Seq. ID. No. 3 (MAKVQYLTRSAIRRASTIEMPQQARQKLQNLFINFCLILICLLLICIIVMLL; adenoviral vector; listed as Homo sapiens)” here?
Answer: 72%

Question: Which “increase in PLB protein level” value (PLB protein) does the source give for “R14E: adenoviral single point mutation of PLB, Seq. ID. No. 4 (MEKVQYLTRSAIREASTIEMPQQARQKLQNLFINFCLILICLLLICIIVMLL; adenoviral vector; listed as Homo sapiens)” here?
Answer: 57%

Question: For “TAT-PLB: 20 residue portion of the PLB sequence attached to the 3′ end of TAT, Seq. ID. No. 11 (GGGGYGRKKRRQRRRMEKVQYLTRSAIRRASTIEM; listed as Homo sapiens)”, which “effect on myocyte contraction (overall)” value ([1]; T-test, no statistical difference) is on record?
Answer: trend towards a larger, faster contraction

Question: What about the “Maximum Contract.” value [1] of the same molecule?
Answer: 112.57 and 109.68 and 133.82 and 81.61 and 74.423 and 126.89 and 133.61

Question: What about the “Minimum Contract.” value [1] of the same molecule?
Answer: 101.17 and 102.00 and 116.32 and 67.871 and 64.629 and 108.38 and 128.21

Question: What about the “Maximum Contract.” value ([1]; mean) of the same molecule?
Answer: 110.373

Question: And the “Minimum Contract.” value ([1]; mean)?
Answer: 98.363

Question: And the “Relax. Slope” value [1]?
Answer: 0.9925 and 0.9790 and 0.9878 and 0.9697 and 0.9933 and 0.9939 and 0.9959

Question: And the “Relax. Slope” value ([1]; mean)?
Answer: 0.9874

B1: contractilin: recombinant protein from chicken polyclonal PLB antibody hypervariable regions, expressed from adenoviral vector (Seq. ID. No. 9) (protein, listed as Homo sapiens)
chain: MHHHHHHVAQAALTHSSSVSANPGETVKITCSGGGNYAGSYYYGWFQQKSPGSAPVTVIYSNDQRPSNIPSRFSGSTSGSTSTLTITGVRAEDEAVYFCGSNSGTGYVGIFGAGTTLTVLGQSSRSSTVTLDESGGGLQTPGGALSLVCRASGFTFSRFHMMWVRQAPGKGLEWVAGIDDGGSFTLYGAAVKGRATILRDNGQSTVRLQLDNLRPEDTATYFCVKTKCGGNGWCGADRIDAWGHGTEVIVSSTSGQAGQYPYDVPDYAS
Question: Which “cytoplasmic Ca2+ removal” value (SR Ca2+ transport) does the source give for B1 here?
Answer: accelerates cytoplasmic Ca^2+ removal

— patent US20090149412A1, “Method for Inhibition of Phospholamban Activity for the Treatment of Cardiac Disease and Heart Failure” (THE REGENTS OF THE UNIVERSITY OF CALIFORNIA, priority 1999, published 2009)
